# Assay results: publication PMC10257182, “Discovery of senolytics using machine learning” (Nature Communications, 2023)
# Where “and” joins values, the source holds several entries; their conditions need not be identical. Equal values may be shown once. Where a name gives a salt, the structure may show the parent alone. Read-outs that look alike come from different tables or passages of the source.
# Key:
# Format in all cases: cell-based, human
# [1] = tested on: non-senescent control IMR90 ER:RAS cells; assay: Nuclei count (Hoechst, high content imaging) senolytic assay, OIS model, non-senescent control cells
# Method in brief: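 Cells seeded, left 24 h, then dosed across a 10-point […] series (10 μM down to 10 nM) with DMSO control. After 72 h, wells were fixed, permeabilised and stained with Hoechst. Nuclei were counted by high-content imaging in senescent and non-senescent IMR90 ER:RAS cultures.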
# [2] = tested on: non-senescent control A549 cells; assay: Nuclei count senolytic assay, TIS model, non-senescent control cells; settings: Control cells, mean
# Method in brief: (§1)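 Senescence in A549 cells is induced by 48 h of 100 μM etoposide followed by three days without drug, alongside non-senescent controls. Cells are seeded, rested 24 h, then exposed 72 h to compounds (10 nM–10 μM final, […] steps, triplicate) before nuclei are counted by imaging.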
# [3] = tested on: senescent A549 cells (etoposide-induced); assay: Nuclei count senolytic assay, therapy-induced senescence (TIS) model, senescent cells; settings: Senescent cells, mean
# Method in brief: as §1
# [4] = Homo sapiens, A549, log (dose) [M] -5, read-out: Mean % Cell Survival
# [5] = Homo sapiens, A549, log (dose) [M] -5.33, read-out: Mean % Cell Survival
# [6] = Homo sapiens, A549, log (dose) [M] -5.66, read-out: Mean % Cell Survival
# [7] = Homo sapiens, A549, log (dose) [M] -6, read-out: Mean % Cell Survival
# [8] = Homo sapiens, A549, log (dose) [M] -6.33, read-out: Mean % Cell Survival
# [9] = Homo sapiens, A549, log (dose) [M] -6.66, read-out: Mean % Cell Survival
# [10] = Homo sapiens, A549, log (dose) [M] -7, read-out: Mean % Cell Survival
# [11] = Homo sapiens, A549, log (dose) [M] -7.33, read-out: Mean % Cell Survival
# [12] = Homo sapiens, A549, log (dose) [M] -7.66, read-out: Mean % Cell Survival
# [13] = Homo sapiens, A549, log (dose) [M] -8, read-out: Mean % Cell Survival
compound,measurement,setting,value
"Cc1c(NC(=O)OC[C@@H]2COCCN2)cn2ncnc(Nc3ccc4c(cnn4Cc4cccc(F)c4)c3)c12.Cl.Cl [BMS 599626 2HCL, BMS 599626 dihydrochloride]",% Cell Survival,"[1]; Control cells, log (dose) [M] -5, individual replicates, SUP FIG 4C",105.353% and 91.3279% and 103.579%
same,% Cell Survival,"[1]; Control cells, log (dose) [M] -5.33, individual replicates, SUP FIG 4C",86.7238% and 73.5321% and 81.9018%
same,% Cell Survival,"[1]; Control cells, log (dose) [M] -5.66, individual replicates, SUP FIG 4C",118.415% and 87.5339% and 100.613%
same,% Cell Survival,"[1]; Control cells, log (dose) [M] -6, individual replicates, SUP FIG 4C",100.107% and 87.4435% and 90.184%
same,% Cell Survival,"[1]; Control cells, log (dose) [M] -6.33, individual replicates, SUP FIG 4C",111.884% and 90.2439% and 100.716%
same,% Cell Survival,"[1]; Control cells, log (dose) [M] -6.66, individual replicates, SUP FIG 4C",106.852% and 86.4499% and 109.816%
same,% Cell Survival,"[1]; Control cells, log (dose) [M] -7, individual replicates, SUP FIG 4C",101.927% and 74.8871% and 92.5358%
same,% Cell Survival,"[1]; Control cells, log (dose) [M] -7.33, individual replicates, SUP FIG 4C",103.426% and 89.7922% and 99.3865%
same,% Cell Survival,"[1]; Control cells, log (dose) [M] -7.66, individual replicates, SUP FIG 4C",119.807% and 91.5989% and 105.93%
same,% Cell Survival,"[1]; Control cells, log (dose) [M] -8, individual replicates, SUP FIG 4C",100.749% and 77.0551% and 102.454%
same,Mean % Cell Survival,"[1]; Control, log (dose) [M] -5, 72 h, mean n=3 (Fig 3C)",100.087%
same,Mean % Cell Survival,"[1]; Control, log (dose) [M] -5.33, 72 h, mean n=3 (Fig 3C)",80.7192%
same,Mean % Cell Survival,"[1]; Control, log (dose) [M] -5.66, 72 h, mean n=3 (Fig 3C)",102.188%
same,Mean % Cell Survival,"[1]; Control, log (dose) [M] -6, 72 h, mean n=3 (Fig 3C)",92.5782%
same,Mean % Cell Survival,"[1]; Control, log (dose) [M] -6.33, 72 h, mean n=3 (Fig 3C)",100.948%
same,Mean % Cell Survival,"[1]; Control, log (dose) [M] -6.66, 72 h, mean n=3 (Fig 3C)",101.039%
same,Mean % Cell Survival,"[1]; Control, log (dose) [M] -7, 72 h, mean n=3 (Fig 3C)",89.7834%
same,Mean % Cell Survival,"[1]; Control, log (dose) [M] -7.33, 72 h, mean n=3 (Fig 3C)",97.535%
same,Mean % Cell Survival,"[1]; Control, log (dose) [M] -7.66, 72 h, mean n=3 (Fig 3C)",105.779%
same,Mean % Cell Survival,"[1]; Control, log (dose) [M] -8, 72 h, mean n=3 (Fig 3C)",93.4195%
same,% Cell Survival,"[1]; Control, log (dose) [M] -5",100.351% and 111.029% and 102.815%
same,% Cell Survival,"[1]; Control, log (dose) [M] -5.33",101.964% and 126.351% and 107.239%
same,% Cell Survival,"[1]; Control, log (dose) [M] -5.66",131.276% and 125.833% and 112.534%
same,% Cell Survival,"[1]; Control, log (dose) [M] -6",101.823% and 113.768% and 114.812%
same,% Cell Survival,"[1]; Control, log (dose) [M] -6.33",107.574% and 113.397% and 102.681%
same,% Cell Survival,"[1]; Control, log (dose) [M] -6.66",98.317% and 111.029% and 104.088%
same,% Cell Survival,"[1]; Control, log (dose) [M] -7",103.156% and 106.366% and 100.335%
same,% Cell Survival,"[1]; Control, log (dose) [M] -7.33",103.086% and 108.882% and 96.7828%
same,% Cell Survival,"[1]; Control, log (dose) [M] -7.66",97.5456% and 102.221% and 100.201%
same,% Cell Survival,"[1]; Control, log (dose) [M] -8",96.0028% and 99.7779% and 101.072%
same,Mean % Cell Survival,[2]; log (dose) [M] -5,104.732%
same,Mean % Cell Survival,[2]; log (dose) [M] -5.33,111.851%
same,Mean % Cell Survival,[2]; log (dose) [M] -5.66,123.214%
same,Mean % Cell Survival,[2]; log (dose) [M] -6,110.134%
same,Mean % Cell Survival,[2]; log (dose) [M] -6.33,107.884%
same,Mean % Cell Survival,[2]; log (dose) [M] -6.66,104.478%
same,Mean % Cell Survival,[2]; log (dose) [M] -7,103.285%
same,Mean % Cell Survival,[2]; log (dose) [M] -7.33,102.917%
same,Mean % Cell Survival,[2]; log (dose) [M] -7.66,99.9891%
same,Mean % Cell Survival,[2]; log (dose) [M] -8,98.951%
same,Mean % Cell Survival,[3]; log (dose) [M] -5,90.7857%
same,Mean % Cell Survival,[3]; log (dose) [M] -5.33,83.9286%
same,Mean % Cell Survival,[3]; log (dose) [M] -5.66,68.2857%
same,Mean % Cell Survival,[3]; log (dose) [M] -6,92.9286%
same,Mean % Cell Survival,[3]; log (dose) [M] -6.33,86.7857%
same,Mean % Cell Survival,[3]; log (dose) [M] -6.66,103.929%
same,Mean % Cell Survival,[3]; log (dose) [M] -7,113.571%
same,Mean % Cell Survival,[3]; log (dose) [M] -7.33,119.214%
same,Mean % Cell Survival,[3]; log (dose) [M] -7.66,109.286%
same,Mean % Cell Survival,[3]; log (dose) [M] -8,117.714%
"CC[C@]1(O)C[C@@H]2CN(CCc3c([nH]c4ccccc34)[C@@](C(=O)OC)(c3cc4c(cc3OC)N(C)[C@H]3[C@@](O)(C(=O)OC)[C@H](OC(C)=O)[C@]5(CC)C=CCN6CC[C@]43[C@@H]65)C2)C1 [Vinblastine sulfate, vinblastine sulfate, reference compound]",viability at 10 µM,"[1]; Homo sapiens, IMR-90, 72 h, Control, log (dose) [M] -5, 72 h, mean n=3 (Fig 3C), read-out: Mean % Cell Survival",51.7%
same,viability at 4.677 µM,"[1]; Homo sapiens, IMR-90, 72 h, Control, log (dose) [M] -5.33, 72 h, mean n=3 (Fig 3C), read-out: Mean % Cell Survival",55.1%
same,viability at 2.188 µM,"[1]; Homo sapiens, IMR-90, 72 h, Control, log (dose) [M] -5.66, 72 h, mean n=3 (Fig 3C), read-out: Mean % Cell Survival",57.9%
same,viability at 1 µM,"[1]; Homo sapiens, IMR-90, 72 h, Control, log (dose) [M] -6, 72 h, mean n=3 (Fig 3C), read-out: Mean % Cell Survival",76.4%
same,viability at 0.4677 µM,"[1]; Homo sapiens, IMR-90, 72 h, Control, log (dose) [M] -6.33, 72 h, mean n=3 (Fig 3C), read-out: Mean % Cell Survival",76.9%
same,viability at 0.2188 µM,"[1]; Homo sapiens, IMR-90, 72 h, Control, log (dose) [M] -6.66, 72 h, mean n=3 (Fig 3C), read-out: Mean % Cell Survival",80.8%
same,viability at 0.1 µM,"[1]; Homo sapiens, IMR-90, 72 h, Control, log (dose) [M] -7, 72 h, mean n=3 (Fig 3C), read-out: Mean % Cell Survival",104%
same,viability at 0.04677 µM,"[1]; Homo sapiens, IMR-90, 72 h, Control, log (dose) [M] -7.33, 72 h, mean n=3 (Fig 3C), read-out: Mean % Cell Survival",112%
same,viability at 0.02188 µM,"[1]; Homo sapiens, IMR-90, 72 h, Control, log (dose) [M] -7.66, 72 h, mean n=3 (Fig 3C), read-out: Mean % Cell Survival",104%
same,viability at 0.01 µM,"[1]; Homo sapiens, IMR-90, 72 h, Control, log (dose) [M] -8, 72 h, mean n=3 (Fig 3C), read-out: Mean % Cell Survival",105%
same,viability at 0.04677 µM,"[1]; Homo sapiens, IMR-90, Control cells, log (dose) [M] -7.33, individual replicates, SUP FIG 4C, read-out: % Cell Survival",114%
same,viability at 0.01 µM,"[1]; Homo sapiens, IMR-90, Control cells, log (dose) [M] -8, individual replicates, SUP FIG 4C, read-out: % Cell Survival",102%
same,viability at 10 µM,"[1]; Homo sapiens, IMR-90, Control, log (dose) [M] -5, read-out: % Cell Survival",46.8%
same,viability at 4.68 µM,"[1]; Homo sapiens, IMR-90, Control, log (dose) [M] -5.33, read-out: % Cell Survival",42.3%
same,viability at 2.19 µM,"[1]; Homo sapiens, IMR-90, Control, log (dose) [M] -5.66, read-out: % Cell Survival",47.6%
same,viability at 1 µM,"[1]; Homo sapiens, IMR-90, Control, log (dose) [M] -6, read-out: % Cell Survival",41.3%
same,viability at 0.468 µM,"[1]; Homo sapiens, IMR-90, Control, log (dose) [M] -6.33, read-out: % Cell Survival",41.5%
same,viability at 10 µM,[2]; [4],47.4%
same,viability at 4.68 µM,[2]; [5],46.3%
same,viability at 2.19 µM,[2]; [6],48.5%
same,viability at 1 µM,[2]; [7],47%
same,viability at 0.468 µM,[2]; [8],45.9%
same,viability at 0.219 µM,[2]; [9],49.9%
same,viability at 0.1 µM,[2]; [10],52.9%
same,viability at 0.0468 µM,[2]; [11],66.7%
same,viability at 0.0219 µM,[2]; [12],69.2%
same,viability at 0.01 µM,[2]; [13],78.7%
same,viability at 10 µM,[3]; [4],88.8%
same,viability at 4.68 µM,[3]; [5],83.2%
same,viability at 2.19 µM,[3]; [6],90.4%
same,viability at 1 µM,[3]; [7],72.2%
same,viability at 0.468 µM,[3]; [8],92.1%
same,viability at 0.219 µM,[3]; [9],97.3%
same,viability at 0.1 µM,[3]; [10],103%
same,viability at 0.0468 µM,[3]; [11],99.9%
same,viability at 0.0219 µM,[3]; [12],103%
same,viability at 0.01 µM,[3]; [13],104%
